{"source": "paper PMC8848508", "about": "(ACS Central Science, 2022)", "key": {"SARS-CoV-2 [1]": {"test_system": "SARS-CoV-2", "details": "read-out: antiviral EC50, primary CPE assay, cited from earlier work"}, "SARS-CoV-2 [2]": {"test_system": "SARS-CoV-2", "details": "read-out: antiviral EC50; cited from earlier work"}, "SARS-CoV-2 [3]": {"test_system": "SARS-CoV-2", "details": "read-out: antiviral EC50; genomic RNA quantification; cited from earlier work"}, "SARS-CoV-2 M^Pro": {"target": "SARS-CoV-2 M^Pro (Severe acute respiratory syndrome coronavirus 2, UniProt P0DTD1)", "format": "biochemical", "details": "at 16 μM inhibitor"}}, "note": "Where two headings read alike, the source gives them in different places."}
{"compound": "CC(C)COCC(CN(Cc1ccccc1)c1ccccc1)N1CCCC1", "note": "(centres unmarked) [bepridil]", "values": [{"measurement": "EC50", "setting": "SARS-CoV-2 [1]; ACE2+ A549 cells", "value": 460, "unit": "nM"}]}
{"compound": "CC(C)(C)NC(=O)N[C@H](C(=O)N1C[C@H]2[C@@H]([C@H]1C(=O)NC(CC1CCC1)C(=O)C(N)=O)C2(C)C)C(C)(C)C", "note": "(some centres unmarked) [boceprevir]", "values": [{"measurement": "EC50", "setting": "SARS-CoV-2 [1]", "value": "1310 ± 580", "unit": "nM"}, {"measurement": "EC50", "setting": "SARS-CoV-2 [2]", "value": 15600, "unit": "nM"}]}
{"compound": "CCCCCCNC(=O)n1cc(F)c(=O)[nH]c1=O", "note": "[carmofur]", "values": [{"measurement": "EC50", "setting": "SARS-CoV-2 [3]", "value": "> 100000", "unit": "nM"}]}
{"compound": "CCN(CC)CCCC(C)Nc1ccnc2cc(Cl)ccc12", "note": "(centres unmarked) [chloroquine]", "values": [{"measurement": "M^Pro retained activity", "setting": "SARS-CoV-2 M^Pro", "value": 84, "unit": "%"}]}
